According to US20240059671A1, “TYROSINE KINASE 2 (TYK2) DEGRADATION COMPOUNDS AND METHODS OF USE” (CULLGEN (SHANGHAI), INC., priority 2020, published 2024):

Target: TYK2 (Homo sapiens, UniProt P29597)
Assay: TYK2 protein degradation in MOLT-4 cells by immunoblotting
Assay type: cell-based
Parameters: endogenous in cells; host or cells: MOLT-4
Conditions: MOLT-4 cells, 24 hours
In short: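 MOLT-4 cells were exposed to compounds at 0.5 and 5 μM for 24 h, then lysed in RIPA buffer with protease and phosphatase inhibitors. TYK2 was detected by SDS-PAGE immunoblot with chemiluminescence, and band densitometry gave percent degradation.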

TYK2, sequence (P29597 whole entry): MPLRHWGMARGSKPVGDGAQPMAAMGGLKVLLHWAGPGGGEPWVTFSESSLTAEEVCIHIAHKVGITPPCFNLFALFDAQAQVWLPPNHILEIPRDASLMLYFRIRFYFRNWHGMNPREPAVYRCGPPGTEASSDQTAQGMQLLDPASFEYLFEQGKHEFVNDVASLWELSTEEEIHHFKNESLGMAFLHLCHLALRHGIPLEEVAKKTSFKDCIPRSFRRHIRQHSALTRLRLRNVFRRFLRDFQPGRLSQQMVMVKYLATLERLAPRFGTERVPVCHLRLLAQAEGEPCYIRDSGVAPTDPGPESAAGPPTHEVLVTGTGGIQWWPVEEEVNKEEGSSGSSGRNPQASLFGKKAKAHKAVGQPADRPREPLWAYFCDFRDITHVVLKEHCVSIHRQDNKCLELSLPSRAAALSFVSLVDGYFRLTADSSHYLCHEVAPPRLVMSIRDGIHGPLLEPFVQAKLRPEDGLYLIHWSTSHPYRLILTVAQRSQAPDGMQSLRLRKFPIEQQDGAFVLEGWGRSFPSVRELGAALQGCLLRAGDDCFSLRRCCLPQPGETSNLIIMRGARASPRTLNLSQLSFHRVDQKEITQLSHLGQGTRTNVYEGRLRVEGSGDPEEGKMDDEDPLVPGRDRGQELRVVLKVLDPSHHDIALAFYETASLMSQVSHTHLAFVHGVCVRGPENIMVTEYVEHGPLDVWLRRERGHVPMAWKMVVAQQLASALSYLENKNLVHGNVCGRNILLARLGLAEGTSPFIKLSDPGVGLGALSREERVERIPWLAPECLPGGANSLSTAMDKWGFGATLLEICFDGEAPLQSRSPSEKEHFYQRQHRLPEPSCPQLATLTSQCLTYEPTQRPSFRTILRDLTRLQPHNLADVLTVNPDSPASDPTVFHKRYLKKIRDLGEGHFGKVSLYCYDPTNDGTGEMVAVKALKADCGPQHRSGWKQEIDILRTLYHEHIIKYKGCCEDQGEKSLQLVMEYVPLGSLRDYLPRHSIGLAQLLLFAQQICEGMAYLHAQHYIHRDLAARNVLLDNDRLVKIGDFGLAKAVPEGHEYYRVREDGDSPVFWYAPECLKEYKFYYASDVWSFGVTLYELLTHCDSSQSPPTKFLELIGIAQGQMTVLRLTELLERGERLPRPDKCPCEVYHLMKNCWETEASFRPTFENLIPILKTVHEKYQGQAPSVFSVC

| Structure (SMILES) | TYK2 Degradation (MOLT-4, 0.5 μM) | TYK2 Degradation (0.5 μM) [%] | TYK2 Degradation (5 μM) [%] | TYK2 Degradation (MOLT-4, 5 μM) |
| --- | --- | --- | --- | --- |
| CNC(=O)c1nnc(NC(=O)CNC(=O)CCCCCNc2cccc3c2C(=O)N(C2CCC(=O)NC2=O)C3=O)cc1Nc1cccc(-c2ncn(C)n2)c1OC (stereo not drawn) [CPD-046, 6-(2-(6-((2-(2,6-Dioxopiperidin-3-yl)-1,3-dioxoisoindolin-4-yl)amino)hexanamido)acetamido)-4-((2-methoxy-3-(1-methyl-1H-1,2,4-triazol-3-yl)phenyl)amino)-N-methylpyridazine-3-carboxamide] | – | ≤20 | ≤20 | – |
| CNC(=O)c1nnc(NC(=O)CNC(=O)CCCNc2cccc3c2C(=O)N(C2CCC(=O)NC2=O)C3=O)cc1Nc1cccc(-c2ncn(C)n2)c1OC (stereo not drawn) [CPD-044, 6-(2-(4-((2-(2,6-Dioxopiperidin-3-yl)-1,3-dioxoisoindolin-4-yl)amino)butanamido)acetamido)-4-((2-methoxy-3-(1-methyl-1H-1,2,4-triazol-3-yl)phenyl)amino)-N-methylpyridazine-3-carboxamide] | – | ≤20 | ≤20 | – |
| CNC(=O)c1nnc(NC(=O)C2CC2)cc1Nc1cccc(-c2ncn(CCNC(=O)CCCCCCCCCC(=O)N[C@H](C(=O)N3C[C@H](O)C[C@H]3C(=O)NCc3ccc(-c4scnc4C)cc3)C(C)(C)C)n2)c1OC [CPD-082, N^1-(2-(3-(3-((6-(Cyclopropanecarboxamido)-3-(methylcarbamoyl)pyridazin-4-yl)amino)-2-methoxyphenyl)-1H-1,2,4-triazol-1-yl)ethyl)-N^11-((S)-1-((2S,4R)-4-hydroxy-2-((4-(4-methylthiazol-5-yl)benzyl)carbamoyl)pyrrolidin-1-yl)-3,3-dimethyl-1-oxobutan-2-yl)undecanediamide] | C (C: ≤20% TYK2 degradation) | – | – | C (C: ≤20% TYK2 degradation) |
| CNC(=O)c1nnc(NC(=O)CNC(=O)COCCOCCOCC(=O)N[C@H](C(=O)N2C[C@H](O)C[C@H]2C(=O)NCc2ccc(-c3scnc3C)cc2)C(C)(C)C)cc1Nc1cccc(-c2ncn(C)n2)c1OC [CPD-029, 6-((S)-16-((2S,4R)-4-Hydroxy-2-((4-(4-methylthiazol-5-yl)benzyl)carbamoyl)pyrrolidine-1-carbonyl)-17,17-dimethyl-4,14-dioxo-6,9,12-trioxa-3,15-diazaoctadecanamido)-4-((2-methoxy-3-(1-methyl-1H-1,2,4-triazol-3-yl)phenyl)amino)-N-methylpyridazine-3-carboxamide] | – | ≤20 | ≤20 | – |
| CNC(=O)c1nnc(NC(=O)CNC(=O)CCOCCOCCNc2ccc3c(c2)C(=O)N(C2CCC(=O)NC2=O)C3=O)cc1Nc1cccc(-c2ncn(C)n2)c1OC (stereo not drawn) [CPD-062, 6-(2-(3-(2-(2-((2-(2,6-Dioxopiperidin-3-yl)-1,3-dioxoisoindolin-5-yl)amino)ethoxy)ethoxy)propanamido)acetamido)-4-((2-methoxy-3-(1-methyl-1H-1,2,4-triazol-3-yl)phenyl)amino)-N-methylpyridazine-3-carboxamide] | – | ≤20 | ≤20 | – |
| CNC(=O)c1nnc(NC(=O)CNC(=O)CCC(=O)N[C@H](C(=O)N2C[C@H](O)C[C@H]2C(=O)NCc2ccc(-c3scnc3C)cc2)C(C)(C)C)cc1Nc1cccc(-c2ncn(C)n2)c1OC [CPD-034, N^1—((S)-1-((2S,4R)-4-Hydroxy-2-((4-(4-methylthiazol-5-yl)benzyl)carbamoyl)pyrrolidin-1-yl)-3,3-dimethyl-1-oxobutan-2-yl)-N^4-(2-((5-((2-methoxy-3-(1-methyl-1H-1,2,4-triazol-3-yl)phenyl)amino)-6-(methylcarbamoyl)pyridazin-3-yl)amino)-2-oxoethyl)succinamide] | – | ≤20 | ≤20 | – |
| CNC(=O)c1nnc(NC(=O)C2CC2)cc1Nc1cccc(-c2ncn(CCNC(=O)CCCCCC(=O)N[C@H](C(=O)N3C[C@H](O)C[C@H]3C(=O)NCc3ccc(-c4scnc4C)cc3)C(C)(C)C)n2)c1OC [CPD-078, N^1-(2-(3-(3-((6-(Cyclopropanecarboxamido)-3-(methylcarbamoyl)pyridazin-4-yl)amino)-2-methoxyphenyl)-1H-1,2,4-triazol-1-yl)ethyl)-N^7-((S)-1-((2S,4R)-4-hydroxy-2-((4-(4-methylthiazol-5-yl)benzyl)carbamoyl)pyrrolidin-1-yl)-3,3-dimethyl-1-oxobutan-2-yl)heptanediamide] | – | ≤20 | ≤20 | – |

Now from value to molecule:

| TYK2 Degradation (MOLT-4, 0.5 μM) | TYK2 Degradation (0.5 μM) [%] | TYK2 Degradation (5 μM) [%] | TYK2 Degradation (MOLT-4, 5 μM) | Structure (SMILES) |
| --- | --- | --- | --- | --- |
| C (C: ≤20% TYK2 degradation) | – | – | – | CNC(=O)c1nnc(NC(=O)CNC(=O)CCCNC(=O)C[C@H](NC(=O)[C@@H]2C[C@@H](O)CN2C(=O)[C@@H](NC(=O)C2(F)CC2)C(C)(C)C)c2ccc(-c3scnc3C)cc2)cc1Nc1cccc(-c2ncn(C)n2)c1OC [CPD-088, 6-(2-(4-((S)-3-((2S,4R)-1-((S)-2-(1-Fluorocyclopropane-1-carboxamido)-3,3-dimethylbutanoyl)-4-hydroxypyrrolidine-2-carboxamido)-3-(4-(4-methylthiazol-5-yl)phenyl)propanamido)butanamido)acetamido)-4-((2-methoxy-3-(1-methyl-1H-1,2,4-triazol-3-yl)phenyl)amino)-N-methylpyridazine-3-carboxamide] |
| – | ≤20 | ≤20 | – | CNC(=O)c1nnc(NC(=O)CNC(=O)CCOCCNc2cccc3c2C(=O)N(C2CCC(=O)NC2=O)C3=O)cc1Nc1cccc(-c2ncn(C)n2)c1OC (stereo not drawn) [CPD-049, 6-(2-(3-(2-((2-(2,6-Dioxopiperidin-3-yl)-1,3-dioxoisoindolin-4-yl)amino)ethoxy)propanamido)acetamido)-4-((2-methoxy-3-(1-methyl-1H-1,2,4-triazol-3-yl)phenyl)amino)-N-methylpyridazine-3-carboxamide] |
| – | ≤20 | ≤20 | – | CNC(=O)c1nnc(NC(=O)CNC(=O)COCC(=O)N[C@H](C(=O)N2C[C@H](O)C[C@H]2C(=O)NCc2ccc(-c3scnc3C)cc2)C(C)(C)C)cc1Nc1cccc(-c2ncn(C)n2)c1OC [CPD-025, 6-(2-(2-(2-(((S)-1-((2S,4R)-4-Hydroxy-2-((4-(4-methylthiazol-5-yl)benzyl)carbamoyl)pyrrolidin-1-yl)-3,3-dimethyl-1-oxobutan-2-yl)amino)-2-oxoethoxy)acetamido)acetamido)-4-((2-methoxy-3-(1-methyl-1H-1,2,4-triazol-3-yl)phenyl)amino)-N-methylpyridazine-3-carboxamide] |
| – | ≤20 | ≤20 | – | CNC(=O)c1nnc(NC(=O)C2CC2)cc1Nc1cccc(-c2ncn(CCNC(=O)CCCC(=O)N[C@H](C(=O)N3C[C@H](O)C[C@H]3C(=O)NCc3ccc(-c4scnc4C)cc3)C(C)(C)C)n2)c1OC [CPD-076, N^1-(2-(3-(3-((6-(Cyclopropanecarboxamido)-3-(methylcarbamoyl)pyridazin-4-yl)amino)-2-methoxyphenyl)-1H-1,2,4-triazol-1-yl)ethyl)-N^5-((S)-1-((2S,4R)-4-hydroxy-2-((4-(4-methylthiazol-5-yl)benzyl)carbamoyl)pyrrolidin-1-yl)-3,3-dimethyl-1-oxobutan-2-yl)glutaramide] |
| – | ≤20 | – | – | CNC(=O)c1nnc(NC(=O)C2CC2)cc1Nc1cccc(-c2ncn(CCNC(=O)CCCNc3ccc4c(c3)C(=O)N(C3CCC(=O)NC3=O)C4=O)n2)c1OC (stereo not drawn) [CPD-015, 6-(Cyclopropanecarboxamido)-4-((3-(1-(2-(4-((2-(2,6-dioxopiperidin-3-yl)-1,3-dioxoisoindolin-5-yl)amino)butanamido)ethyl)-1H-1,2,4-triazol-3-yl)-2-methoxyphenyl)amino)-N-methylpyridazine-3-carboxamide] |
| – | ≤20 | – | – | CNC(=O)c1nnc(NC(=O)C2CC2)cc1Nc1cccc(-c2ncn(CCNC(=O)CCCCCCNc3ccc4c(c3)C(=O)N(C3CCC(=O)NC3=O)C4=O)n2)c1OC (stereo not drawn) [CPD-017, 6-(Cyclopropanecarboxamido)-4-((3-(1-(2-(7-((2-(2,6-dioxopiperidin-3-yl)-1,3-dioxoisoindolin-5-yl)amino)heptanamido)ethyl)-1H-1,2,4-triazol-3-yl)-2-methoxyphenyl)amino)-N-methylpyridazine-3-carboxamide] |
| – | ≤20 | 30 | – | CNC(=O)c1nnc(NC(=O)C2CC2)cc1Nc1cccc(-c2ncn(CCNC(=O)CCCCCCCNc3ccc4c(c3)C(=O)N(C3CCC(=O)NC3=O)C4=O)n2)c1OC (stereo not drawn) [CPD-024, 6-(Cyclopropanecarboxamido)-4-((3-(1-(2-(8-((2-(2,6-dioxopiperidin-3-yl)-1,3-dioxoisoindolin-5-yl)amino)octanamido)ethyl)-1H-1,2,4-triazol-3-yl)-2-methoxyphenyl)amino)-N-methylpyridazine-3-carboxamide] |
| C (C: ≤20% TYK2 degradation) | – | – | C (C: ≤20% TYK2 degradation) | CNC(=O)c1nnc(NC(=O)CNC(=O)CCCCCCNC(=O)C[C@H](NC(=O)[C@@H]2C[C@@H](O)CN2C(=O)[C@@H](NC(=O)C2(F)CC2)C(C)(C)C)c2ccc(-c3scnc3C)cc2)cc1Nc1cccc(-c2ncn(C)n2)c1OC [CPD-091, 6-(2-(7-((S)-3-((2S,4R)-1-((S)-2-(1-Fluorocyclopropane-1-carboxamido)-3,3-dimethylbutanoyl)-4-hydroxypyrrolidine-2-carboxamido)-3-(4-(4-methylthiazol-5-yl)phenyl)propanamido)heptanamido)acetamido)-4-((2-methoxy-3-(1-methyl-1H-1,2,4-triazol-3-yl)phenyl)amino)-N-methylpyridazine-3-carboxamide] |
